≈ marks a conversion by molar mass, not a printed value.
Columns and labels:
HL60/S cells = assay: IC50 of cells treated with drug (drug sensitivity); format: cell-based; details: Homo sapiens, HL-60, do not express P-glycoprotein, read-out: IC₅₀
HL60/Adr cells = assay: IC50 of cells treated with drug (drug sensitivity); format: cell-based; details: Homo sapiens; HL60/Adr cells (resistant to doxorubicin); express P190, no P-glycoprotein; read-out: IC₅₀

Row | IC50 (HL60/S cells) [µg/mL] | IC50 (HL60/Adr cells) [µg/mL] | SMILES
1 | 0.011 (≈ 0.0202 µM) | 2.2 (≈ 4.05 µM) | COc1cccc2c1C(=O)c1c(O)c3c(c(O)c1C2=O)C[C@@](O)(C(=O)CO)C[C@@H]3O[C@H]1C[C@H](N)[C@H](O)[C@H](C)O1 [Adriamycin, Doxorubicin]
2 | 0.39 (≈ 0.663 µM) | > 10 | COc1cc([C@@H]2c3cc4c(cc3[C@@H](O[C@@H]3O[C@@H]5CO[C@@H](C)O[C@H]5[C@H](O)[C@H]3O)[C@H]3COC(=O)[C@H]23)OCO4)cc(OC)c1O [Etoposide]
